Experimental data published in PubChem BioAssay (NCI).
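Dose response: 5 concentrations. Exposure: 48 h. Format: 96-well plates. Endpoint: linear interpolation; highest concentration if not reached. GI50 marks 50% less growth. At the TGI there is no net growth.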

Experiments:
Assay in all cases: inhibition of tumour cell growth, NCI panel, 48 h
[1] = system: NCI-H460 lung
[2] = system: PC-3 prostate
[3] = system: 786-0 renal
[4] = system: HOP-92 NSCLC
[5] = system: NCI-H226 lung
[6] = system: MCF7 breast
[7] = system: NCI-H522 lung
[8] = system: A498 renal
[9] = system: DMS 114 small cell lung
[10] = system: KM20L2 colon
[11] = system: SNB-78 CNS
[12] = system: M19-MEL melanoma
[13] = system: LXFL 529 NSCLC

COc1ccc(-c2cc(-c3ccc(O)cc3O)c(C#N)c(=O)[nH]2)cc1
TGI [1]: 59.7 µM
TGI [2]: 35.4 µM
TGI [3]: 40.9 µM
TGI [4]: 31 µM
TGI [5]: 55.3 µM
TGI [6]: > 100 µM

Cn1ccc(C(=O)NCCN(CCNC(=O)c2ccn(C)c(=O)c2O)CCNC(=O)c2ccn(C)c(=O)c2O)c(O)c1=O
TGI [1]: > 100 µM
TGI [7]: > 100 µM
TGI [2]: > 100 µM
TGI [4]: > 100 µM
TGI [5]: > 100 µM
TGI [8]: > 100 µM
TGI [6]: > 100 µM

Cc1[nH]c(=O)[nH]c(=O)c1/C=C/C(=O)NC(CO)CS(=O)Cc1ccccc1 (stereo unspecified)
TGI [1]: > 300 µM
TGI [9]: > 300 µM
TGI [10]: > 300 µM
TGI [11]: > 300 µM
TGI [7]: > 300 µM
TGI [12]: > 300 µM
TGI [4]: > 300 µM
TGI [5]: > 300 µM
TGI [8]: > 300 µM
TGI [6]: > 300 µM

COc1cc(/C=N\c2nc(-c3ccc(NS(=O)(=O)c4ccc(Cl)c(OC)c4)cc3)cs2)ccc1O
TGI [7]: 60.9 µM
TGI [2]: > 100 µM
TGI [3]: > 100 µM
TGI [4]: > 100 µM
TGI [5]: > 100 µM
TGI [6]: 56.2 µM

NNC(=O)CCSc1ccccc1
TGI [1]: > 100 µM
TGI [7]: > 100 µM
TGI [2]: > 100 µM
TGI [3]: > 100 µM
TGI [5]: > 100 µM
TGI [8]: > 100 µM
TGI [6]: > 100 µM

CN(C)CCCSc1nc2c(c(=N)n1-c1ccccc1)c(=S)n(-c1ccccc1)c(=S)n2-c1ccccc1
TGI [1]: 3.24 µM
TGI [7]: 3.42 µM
TGI [2]: 3.14 µM
TGI [3]: 2.66 µM
TGI [4]: 3.24 µM
TGI [5]: 28.4 µM
TGI [8]: 4.89 µM
TGI [6]: > 100 µM

CCOC(=O)C(Cc1cn(C(C)=O)c2ccccc12)P(=O)(OCC)OCC (stereo unspecified)
TGI [1]: > 100 µM
TGI [7]: > 100 µM
TGI [2]: > 100 µM
TGI [4]: > 100 µM
TGI [5]: > 100 µM

c1ccc(C(NC2=NCCO2)c2ccccc2)cc1
TGI [1]: > 10 µM
TGI [7]: > 10 µM
TGI [2]: > 10 µM
TGI [5]: > 10 µM
TGI [8]: > 10 µM
TGI [6]: > 10 µM

Cn1ncc2c(Nc3cccc(Cl)c3)nc(Nc3cccc(Cl)c3)nc21
TGI [1]: > 30.9 µM
TGI [7]: 39.1 µM
TGI [2]: 36 µM
TGI [3]: 4.84 µM
TGI [4]: 44.7 µM
TGI [5]: > 72.3 µM
TGI [8]: 28.9 µM
TGI [6]: 32.1 µM

COc1ccc(C(O)(c2ccccc2)c2nccc3ccccc23)cc1 (stereo unspecified)
TGI [1]: 38.9 µM
TGI [7]: 30.7 µM
TGI [2]: > 100 µM
TGI [3]: > 100 µM
TGI [6]: > 100 µM

O=C(O)CCc1nc2ccccc2[nH]1
TGI [1]: > 100 µM
TGI [7]: > 100 µM
TGI [2]: > 100 µM
TGI [3]: > 100 µM
TGI [4]: > 100 µM
TGI [5]: > 100 µM
TGI [8]: > 100 µM
TGI [6]: > 100 µM

C/C(=N\NC(=S)N(C)C)c1nc2ncccc2[nH]1
TGI [1]: > 100 µM
TGI [7]: 91.7 µM
TGI [2]: > 100 µM
TGI [4]: 0.928 µM
TGI [5]: 2.05 µM
TGI [8]: 69.5 µM
TGI [6]: > 100 µM

COc1cc2cc(C(=O)Nc3cc4n(n3)-c3ccccc3C4)[nH]c2c(OC)c1OC
TGI [1]: 7.1 µM
TGI [7]: 4.13 µM
TGI [2]: 10.4 µM
TGI [3]: 17.8 µM
TGI [4]: 16.6 µM
TGI [5]: 3.95 µM
TGI [8]: 50 µM
TGI [6]: 14.1 µM

O=[N+]([O-])c1ccc(Oc2c(Cl)cc(S(=O)(=O)/N=C(\NO)Nc3ccc(Cl)cc3)cc2Cl)c(Cl)c1
TGI [1]: 37.2 µM
TGI [7]: 26.4 µM
TGI [2]: 26.7 µM
TGI [3]: 27.8 µM
TGI [4]: 31.2 µM
TGI [5]: 48.3 µM
TGI [8]: 25.9 µM
TGI [6]: 34 µM

O=c1/c(=C/c2ccc([N+](=O)[O-])o2)sc2n1[C@@H](c1ccc(Cl)cc1)C=C(c1cc(F)c(Cl)cc1Cl)N=2
TGI [1]: 24.3 µM
TGI [7]: 49.2 µM
TGI [2]: 32.7 µM
TGI [3]: 20.7 µM
TGI [4]: 28.5 µM
TGI [5]: 32.4 µM
TGI [8]: > 100 µM
TGI [6]: 32.2 µM

CCOC(=O)CCSc1nc2ccc(I)cc2c(=O)n1Cc1ccccc1
TGI [1]: > 100 µM
TGI [7]: 52.5 µM
TGI [2]: > 100 µM
TGI [3]: > 96.8 µM
TGI [4]: 53.5 µM
TGI [5]: > 100 µM
TGI [8]: > 79.2 µM
TGI [6]: > 100 µM

OCCCNc1ncnc2[nH]ncc12
TGI [1]: > 100 µM
TGI [7]: > 100 µM
TGI [2]: > 100 µM
TGI [3]: > 100 µM
TGI [4]: > 100 µM
TGI [5]: > 100 µM
TGI [8]: > 100 µM
TGI [6]: > 100 µM

CC(Oc1ccccc1Cl)C(=O)NN1C(=O)CC(=O)NC1=S (stereo unspecified)
TGI [1]: > 100 µM
TGI [7]: > 100 µM
TGI [2]: > 100 µM
TGI [3]: > 100 µM
TGI [4]: > 100 µM
TGI [5]: > 100 µM
TGI [8]: > 100 µM
TGI [6]: > 100 µM

COc1cc2c(cc1OCCCOS(C)(=O)=O)N=C[C@@H]1CCCN1C2=O
TGI [1]: > 100 µM
TGI [7]: > 100 µM
TGI [3]: > 100 µM
TGI [4]: > 100 µM
TGI [5]: > 100 µM
TGI [8]: > 100 µM
TGI [6]: > 100 µM

O=C(Nc1ccc(-n2cc(-c3ccncc3)c(-c3ccc(O)c(Cl)c3)n2)cc1)Nc1ccc(Cl)c(C(F)(F)F)c1
GI50 [1]: 3.33 µM
TGI [1]: 11.4 µM
GI50 [7]: 2.54 µM
TGI [7]: 13.4 µM
GI50 [2]: 2.49 µM
TGI [2]: 8.74 µM
GI50 [4]: 1.82 µM
TGI [4]: 5 µM
GI50 [5]: 21.4 µM
TGI [5]: 51.8 µM
GI50 [8]: 14.8 µM
TGI [8]: 34.3 µM
GI50 [6]: 3.06 µM
TGI [6]: 13.4 µM

O=C(O)c1cc(=O)c2c(OCC(O)COc3cccc4oc(C(=O)O)cc(=O)c34)cccc2o1
TGI [1]: > 100 µM
TGI [7]: > 75.2 µM
TGI [2]: > 100 µM
TGI [3]: > 100 µM
TGI [4]: > 93.8 µM
TGI [5]: > 100 µM
TGI [8]: > 83.6 µM
TGI [6]: > 100 µM

NC(=O)c1cccc(N=c2oc3ccc(Br)cc3cc2-c2nc3ccccc3[nH]2)c1
TGI [1]: 43.6 µM
TGI [7]: 77.4 µM
TGI [2]: 29.2 µM
TGI [3]: 31.4 µM
TGI [4]: 36.4 µM
TGI [5]: 24.2 µM
TGI [8]: 35.8 µM
TGI [6]: 31.9 µM

CC(=O)O[C@@H]1C(=O)N(c2ccccc2)[C@@H]1c1cc2ccccc2c2ccccc12
TGI [1]: > 100 µM
TGI [7]: 11.2 µM
TGI [2]: > 100 µM
TGI [3]: > 100 µM
TGI [4]: > 100 µM
TGI [5]: > 100 µM
TGI [8]: > 100 µM
TGI [6]: > 100 µM

CC(C)CC(=O)NC(C(=O)NC(C(=O)NC(CC(C)C)C(O)CC(=O)NC(C)C(=O)NC(CC(C)C)C(O)CC(=O)O)C(C)C)C(C)C (stereo unspecified)
TGI [1]: > 100 µM
TGI [7]: > 100 µM
TGI [2]: > 100 µM
TGI [3]: > 100 µM
TGI [4]: > 100 µM
TGI [5]: > 100 µM
TGI [8]: > 100 µM
TGI [6]: > 100 µM

Cc1c2c(OCC(O)CN3CCN(c4ccccc4)CC3)nn(C)c(=O)c2c(C)n1-c1ccccc1 (stereo unspecified)
TGI [1]: 57.7 µM
TGI [7]: 42.2 µM
TGI [2]: 55.9 µM
TGI [3]: 42.3 µM
TGI [4]: > 100 µM
TGI [5]: 54.5 µM
TGI [8]: 58.6 µM
TGI [6]: 36.5 µM

Nc1ccc(Oc2ccc(C3(c4ccc(Oc5ccc(N)cc5)cc4)C4CC5CC(C4)CC3C5)cc2)cc1
TGI [1]: > 100 µM
TGI [7]: > 59.7 µM
TGI [2]: > 52.9 µM
TGI [3]: 19.1 µM
TGI [4]: 35.9 µM
TGI [5]: > 78.4 µM
TGI [8]: 9.36 µM
TGI [6]: > 52.7 µM

C#C/C=C\CCCCCCCCCCCCCC/C=C\CCCCC#CC(O)C#CCCCC/C=C\CCCCCC/C=C/C(O)C#C (stereo unspecified)
TGI [1]: > 75 µM
TGI [7]: > 16 µM
TGI [2]: > 57.7 µM
TGI [3]: 26.7 µM
TGI [4]: 36.8 µM
TGI [5]: > 59.4 µM
TGI [8]: 74.4 µM
TGI [6]: > 40.2 µM

CC(C)C(=O)CC(c1ccc(Cl)cc1)N1N=C(C(C)C)CC1c1ccc(Cl)cc1 (stereo unspecified)
TGI [1]: > 100 µM
TGI [13]: > 100 µM
TGI [9]: > 100 µM
TGI [10]: > 100 µM
TGI [11]: > 100 µM
TGI [7]: > 100 µM
TGI [12]: > 55.6 µM
TGI [4]: > 100 µM
TGI [5]: > 100 µM

C/C(=N\NC(=S)NCCCCNC(=S)N/N=C(\C)c1ccccn1)c1ccccc1
TGI [1]: 4.71 µM
TGI [7]: 30.7 µM
TGI [2]: > 100 µM
TGI [4]: > 57.3 µM
TGI [5]: > 23.6 µM
TGI [8]: 15 µM

C=CCN1C[C@H](C)N([C@@H](c2ccc(C(=O)N3CCCCC3)cc2)c2cccc(OC)c2)C[C@H]1C
TGI [1]: > 100 µM
TGI [7]: 55 µM
TGI [2]: 72.2 µM
TGI [3]: > 100 µM
TGI [4]: > 100 µM
TGI [5]: > 100 µM
TGI [8]: > 100 µM
TGI [6]: > 100 µM
